Data on nine molecules can be found in patent US8415383B2, “Substituted benzamidines as antibacterial agents” (Biota Scientific Management Pty Ltd, priority 2007, dated 2013).

Each structure is given as a SMILES string. Converted amounts (≈) assume the structure as drawn. A value given as a limit tells only on which side of the number the result lay.

The test system of one data set is Staphylococcus aureus ATCC29213. The data set is described as follows: Minimal Inhibitory Concentration (MIC) testing, broth microdilution or agar dilution (CLSI). The following applies: Staphylococcus aureus ATCC29213; MIC scored as class; read-out: Staphylococcus aureus MICs Activity. The class given is cell-based. As to the method:
Minimal Inhibitory Concentration (MIC) Testing
Compounds of this invention were tested for antimicrobial activity by susceptibility testing in liquid or on solid media. MICs for compounds against each strain were determined by the broth microdilution or agar dilution method according to the guidelines of the Clinical Laboratories and Standards Institute, formerly the National Committee for Clinical Laboratory Standards (Clinical Laboratories and Standards Institute. Methods for Dilution Antimicrobial Susceptibility Tests for Bacteria That Grow Aerobically; Approved Standard—Seventh Edition. Document M7-A7. CLSI, Wayne, Pa., 2006; Clinical Laboratories and Standards Institute.
Activities were scored as ‘A’ if the MIC was less than or equal to 0.125 micrograms/ml, ‘B’ if the MIC was 0.25 to 4 micrograms/ml and ‘C’ if the MIC was greater than 4 micrograms/ml.
On the technique in general: In broth dilution the organism is exposed to a series of concentrations in liquid medium.
Consider `N/C(=N\O)c1c(F)ccc(OCc2nc3cc(Cl)ccc3s2)c1F` [Example 1, 3-[(5-Chloro-1,3-benzothiazol-2-yl)methoxy]-2,6-difluoro-N′-hydroxybenzenecarboximidamide], for which the MIC is greater than 4 µg/mL. Still for that read-out and setting: for `CO/N=C(\N)c1c(F)ccc(OCc2nc3cc(Cl)ccc3s2)c1F` [Example 2, 3-[(5-Chloro-1,3-benzothiazol-2-yl)methoxy]-2,6-difluoro-N′-methoxybenzenecarboximidamide] the value was 0.25 to 4 µg/mL (≈ 0.651 to 10.4 µM); for `N=C(N)c1c(F)ccc(OCc2nc3cc(Cl)ccc3s2)c1F` [Example 3, 3-[(5-Chloro-1,3-benzothiazol-2-yl)methoxy]-2,6-difluorobenzenecarboximidamide], greater than 4 µg/mL.

In the case of `N/C(=N\O)c1c(F)ccc(OCc2nc(-c3ccc(Cl)cc3)ns2)c1F` [Example 5, 3-[3-(4-Chlorophenyl)-[1,2,4]thiadiazol-5-ylmethoxy]-2,6-difluoro-N-hydroxybenzamidine], the MIC is less than 0.125 µg/mL. The same measure, in the same setting: then `CC(=O)O/N=C(\N)c1c(F)ccc(OCc2nc(-c3ccc(Cl)cc3)ns2)c1F` [Example 6], with 0.25 to 4 µg/mL (≈ 0.57 to 9.11 µM); and `N=C(N)c1c(F)ccc(OCc2nc(-c3ccc(Cl)cc3)ns2)c1F` [Example 7, 3-((3-(4-chlorophenyl)-1,2,4-thiadiazol-5-yl)methoxy)-2,6-difluorobenzimidamide], with greater than 4 µg/mL. On the same count and under the same terms, then `CS(=O)(=O)/N=C(\N)c1c(F)ccc(OCc2nc(-c3ccc(Cl)cc3)ns2)c1F` [Example 8], with greater than 4 µg/mL. Turning to `COc1ncc(-c2csc(COc3ccc(F)c(/C(N)=N/O)c3F)n2)s1` [Example 9, 2,6-difluoro-N′-hydroxy-3-((2′-methoxy-4,5′-bithiazol-2-yl)methoxy) benzimidamide], the MIC was less than 0.125 µg/mL.

The data set is the same for the next values; noted with them: Staphylococcus aureus, ATCC29213, read-out: Staphylococcus aureus MICs Activity.
As for `O=c1[nH]c(-c2c(F)ccc(OCc3nc(-c4ccc(Cl)cc4)no3)c2F)no1` [Example 4, 3-{3-[3-(4-Chloro-phenyl)-[1,2,4]oxadiazol-5-ylmethoxy]-2,6-difluorophenyl}-4H-[1,2,4]oxadiazol-5-one], the MIC is greater than 4 µg/mL.

System in another data set: not given
Assay: not given
Conditions: not given
As a reminder, the melting point is the temperature, or range, at which the solid turns liquid. In turn, `N/C(=N\O)c1c(F)ccc(OCc2nc3cc(Cl)ccc3s2)c1F` [Example 1, 3-[(5-Chloro-1,3-benzothiazol-2-yl)methoxy]-2,6-difluoro-N′-hydroxybenzenecarboximidamide] gave a melting point of 169 to 170 °C.
